In patent publication US20150010644A1, “OXYGENATION OF THE MUCOSAL BARRIER BY ENTERAL ARTIFICIAL BLOOD TO PREVENT HYPOXIC BREAKDOWN OF THE MUCOSAL BARRIER” (THE REGENTS OF THE UNIVERSITY OF CALIFORNIA, priority 2011, published 2015):
“Also recorded” adds a separate entry of the source.

Columns and labels:
[1] = system: trypsin activity in the intestinal wall; test: In-situ zymography for trypsin activity in jejunal cryosections, rat splanchnic arterial occlusion (SAO) model; format: in vivo; settings: lumenal injection 30 min prior
Protocol: (§1) Male Wistar rats (250-300 g, Harlan Sprague Dawley Inc, Indianapolis, Ind.) were randomly assigned to each group (n=4 per group). Rats were kept on solid food restriction for 12 hours prior to surgery with water ad libitum. […] Sham groups were treated the same with the arteries separated but not ligated.
Control groups: Animals with saline injection into the lumen of the intestine, 3 ml/100 g Body Weight (BW), 30 min prior to SHAM or SAO surgery.
(§2) Perfluorocarbon groups: Perfluorodecalin (PFC) (Sigma-Aldrich, St Louis, Mo.) with oxygen, previously bubbled into the solution for 10 min, was injected into the lumen of the intestine 30 min prior SHAM or SAO surgery (SHAM+PFC+O2, SAO+PFC+O2). PFC without oxygen bubbled into the solution was injected 30 min prior SHAM or SAO surgery (SHAM+PFC, SAO+PFC).
ATP-MgCl2 groups: ATP-MgCl2 (Sigma-Aldrich), 25 mg/kg BW was injected in the lumen of the intestine 30 min prior to SHAM or SAO surgery (SHAM+ATP, SAO+ATP). […]
After 30 min SAO or sham surgery, the animals were euthanized (Beuthanasia®; 0.22 ml/kg BW, IV).
(§3) Tissue cryosections: After euthanasia, jejunal sections (˜1 cm in length) were excised without removal of lumenal contents and suspended in Tissue-Tek O.C.T. Compound (Sakura Finetek, Torrance, Calif.), snap frozen in isopentane/liquid nitrogen, and stored at −80° C. for analysis. Cryosections (5 μm thickness) along the longitudinal axis of the villi were used throughout all experiments. Cryosections were fixed in 10% formalin solution and processed in a non-blinded fashion.
In-situ tissue zymography: In-situ zymography for trypsin activity in cryosections was assessed by measurement of fluorescence resulting from the proteolytic cleavage of the substrate (1 mM, Na-benzoyl-L-arginine-7-amido-methylcoumarin hydrochloride; Sigma-Aldrich) as described elsewhere with propidium iodine counterstaining (Sigma-Aldrich) (9). Slides were observed under an inverted microscope (20× and 60× objectives).

mucin2 [2] = test: Mucin2 fluorescent staining of jejunal sections, rat SAO model; format: in vivo; settings: SAO 30 min, lumenal injection 30 min prior; for villi injury / villus structure: micrographs
Protocol: as §1, §2
(§4) ATP-MgCl2 groups: ATP-MgCl2 (Sigma-Aldrich), 25 mg/kg BW was injected in the lumen of the intestine 30 min prior to SHAM or SAO surgery (SHAM+ATP, SAO+ATP).
(§5) pH groups: Acidic saline (pH 5.5) injected in the lumen of the intestine 30 min prior SHAM surgery or HEPES buffer (20 mM) injected into the lumen of the intestine 30 min prior to SHAM or SAO surgery.
(§6) Free radicals groups: The hydroxyl radical scavenger, dimethylthiourea (DMTU, Sigma-Aldrich; 2.0 mg/g BW) was injected in the lumen of the intestine 30 min prior to SAO (SAO+DMTU).
as §3
(§7) Mucin and lectin staining: The simultaneous visualization of lectins and mucin was carried out using Lectin GS-II from Griffonia simplicifolia, Alexa Fluor® 594 Conjugate (EnzChek®, Invitrogen, Carlsbad, Calif.) and specific antibody for mucin2 with FITC secondary antibody 1:10000 (Santa Cruz Biotechnology) and nuclei counterstaining with DAPI. Sections were observed on an inverted microscope (20× objective) using the appropriate fluorescent filters.

[3] = system: ATP concentration in intestine homogenates; test: ATP assay in intestine homogenates, rat SAO model; format: in vivo; settings: SAO 30 min; lumenal injection 30 min prior
Protocol: as §1, §2, §4, §5, §6
ATP assay: ATP concentrations in intestine homogenates were measured using ATP fluorometirc assay kit (BioVision, Mountain View, Calif.) according to manufacturer's protocol. Briefly jejuna sections were homogenized with perchloric acid (BioVision), centrifuged at 15,000×G for 5 min at 4° C. Samples were mixed with ATP reaction mix, incubated for 30 min protected from light and the fluorescence was measured with 535/587 (Ex/Em).

mucin2 [4] = test: Western blot for mucin2 of intestine homogenates, rat SAO model; format: in vivo; settings: SAO 30 min, lumenal injection 30 min prior
Protocol: as §1, §2, §4, §5, §6
(§8) Homogenates of intestine and lumenal contents: Jejunal segments were excised without removal of lumenal contents. For enzyme activity measurements, segments of intestine were homogenized with CelLytic™ (Sigma-Aldrich) without addition of protease inhibitors. For Western blot assays the intestine segments were homogenized as above in the presence of protease inhibitors (5 mM EDTA, 5 mM N-Ethylmaleimide, 25 mM iodoacetamide, 5 mM benzamidine, 300 mM acarbose, 5 mM 6-aminocaproic acid, 1 mM protease inhibitor cocktail, (Sigma-Aldrich). In separate experiments the small intestine of sham animals was excised, and the lumenal contents were flushed with 20 ml saline. Homogenates or lumenal contents were centrifuged (16,000 g for 15 min at 4° C.), the supernatant was collected and protein concentration was assessed with the bicinchoninic acid protein assay (Thermo Scientific).
(§9) Western blot: 20 μg of tissue homogenate were separated by SDS-PAGE. Membranes were incubated with primary antibodies as follows: mucin2, mucin13 and trypsin 1:1000 (Santa Cruz Biotechnology), pancreatic amylase 1:1000 (GeneTex, San Antonio, Tex.), intra- and extra-cellular domains of E-cadherin and TLR4 1:1000 (Abcam), intracellular domain of TLR4 1:1000 (Invitrogen). Secondary antibodies were diluted 1:20000 (Santa Cruz Biotechnology) and detected with Super Signal West Pico (Thermo Scientific). The exposed x-ray films were scanned and label intensity was measured using digital gel analysis (NIH ImageJ software).

[5] = system: lectin staining (carbohydrate portion of mucin); test: Lectin fluorescent staining (carbohydrate portion of mucin) of jejunal sections, rat SAO model; format: in vivo; settings: SAO 30 min; lumenal injection 30 min prior
Protocol: as §1, §2, §4, §5, §6, §3, §7

intestinal villi hypoxia = test: Hypoxia staining (pimonidazole, Hypoxyprobe-1) of intestinal villi, rat SAO model; format: in vivo; settings: SAO 30 min; lumenal injection 30 min prior
Protocol: as §1, §2, §4, §5, §6
Hypoxia staining: In separate experiments tissue hypoxia was detected with Hypoxyprobe™-1 Kit (Natural Pharmacia International, Burlington, Mass., USA). This method utilizes a small molecular marker, pimonidazole, which after intravenous injection forms adducts with thiol containing proteins only in oxygen-starved cells. After general anesthesia as described above, pimonidazole-HCl (6 mg/100 g) was injected intravenously 30 min before SAO or SHAM; at 30 min the animal was euthanized and the jejuna section removed, embedded in O.C.T and frozen in liquid nitrogen. Then cryosections were immunostained using a rabbit antibody that binds to protein adducts of pimonidazole in hypoxic cells.

mucin13 = test: Western blot for mucin13 of intestine homogenates, rat SAO model; format: in vivo; settings: SAO 30 min, lumenal injection 30 min prior
Protocol: as §1, §2, §4, §5, §6, §8, §9

ischemic intestine = test: Rat model with severe ischemic intestine (30 min ischemia), enteral oxygen carrier; format: in vivo; settings: 7 ml for 230 g rat, saturated for 10 min in oxygen
Protocol: The case was illustrated in a model with 30 min ischemia with Perfluorodecalin solution (7 ml for 230 g rat) saturated for 10 min in oxygen.

[6] = system: MDA equivalents (TBARS) in jejunal homogenates; test: Thiobarbituric Acid Reactive Substances (TBARS) assay, rat SAO model; format: in vivo; settings: SAO 30 min; lumenal injection 30 min prior
Protocol: as §1, §2, §4
pH groups: Acidic saline (pH 5.5) injected in the lumen of the intestine 30 min prior SHAM surgery or HEPES buffer (20 mM) injected into the lumen of the intestine 30 min prior to SHAM or SAO surgery. […]
TBARS assay: Thiobarbituric Acid Reactive Substances (TBARS) was measured using the TBARS assay kit (Zeptometrix, Buffalo, N.Y.) according to manufacturer's protocol. […] Samples were centrifuged at 3000 rpm for 15 min and the supernatant were read at 530/550 (Ex/Em).

IEC-18 cells = test: FITC-dextran permeability of IEC-18 cells on Transwell plates with and without mucin film; format: cell-based; settings: trypsin 50 μM
Protocol: (§10) To investigate whether mucin provides a barrier against trypsin transport, IEC-18 cells (on Transwell plates) were coated with and without a mucin film (400 μm, 10%, porcine stomach). FITC-dextrans (20 kDa, 5 mg/ml) with and without trypsin (50 μM) was added to the apical side and the rate of FITC accumulation on the basal side over 60 min was measured. To determine if trypsin cleaves the adherent junctions of the epithelium, it was measured by Western blot the levels of intra- and extracellular domains of E-cadherin. […] Thus, mucin protects against trypsin-mediated increases in intestinal epithelial permeability.

E-cadherin = test: Western blot of intra- and extracellular domains of E-cadherin in IEC-18 cells; format: cell-based; settings: trypsin 50 μM
Protocol: as §10

[7] = listed as deoxygenated perfluorcarbon

Molecule	trypsin activity in the intestinal wall ([1]; SAO 30 min)	mucin2 staining levels (mucin2 [2])	villi injury / villus structure (mucin2 [2])	ATP concentration in intestinal tissue homogenates [3]	mucin2 protein levels (relative density, Western blot) (mucin2 [4])	lectin staining levels [5]	hypoxia staining levels (intestinal villi hypoxia)	mucin13 protein levels / 17 kDa fragment (Western blot) (mucin13)	trypsin activity in the intestinal wall ([1]; SHAM surgery)	mucin2 protein levels (relative density, Western blot) (mucin2 [4]; [7])	mucin13 protein levels / 17 kDa fragment (Western blot) (mucin13; [7])	trypsin activity in the intestinal wall ([1]; SAO 30 min, listed as oxygenated perfluorcarbon)	intestinal damage (ischemic intestine)	levels of MDA equivalents (TBARS) [6]	decrease of epithelial permeability (FITC-dextran 20 kDa accumulation on basal side over 60 min) (IEC-18 cells; mucin film present (400 μm, 10%, porcine stomach), p<0.05)	E-cadherin cleavage (E-cadherin; mucin film present)	increase of epithelial permeability (FITC-dextran 20 kDa accumulation on basal side over 60 min) (IEC-18 cells; without a mucin film)	E-cadherin cleavage (E-cadherin; without a mucin film)
CNC(=S)NC [DMTU, dimethylthiourea, reference compound]	undetectable levels of trypsin activity; also recorded: reduced trypsin activity in the intestinal wall	no significant change in mucin2 staining levels	undetectable villi injury	lower than SHAM and higher than SAO but it was not statistically significant	reduced levels of mucin2; also recorded: reduction in mucin2 protein levels	lower levels of lectin labeling as compared to SHAM; also recorded: decrease in lectin staining	significantly low levels of hypoxia staining as compared to SAO	no appearance of the lower molecular weight band at 17 kDA; also recorded: preservation of mucin13 protein levels	–	–	–	–	–	–	–	–	–	–
O=S(=O)(O)CCN1CCN(CCO)CC1 [HEPES buffer, HEPES]	Low levels of trypsin activity	significantly lower as compared to SHAM, and they were also significantly higher than SAO	did not have signs of villi injury	significantly higher than SAO and similar to sham groups	no significant decrease in mucin2 molecule	lower as compared to SHAM	significantly higher than the SHAM and SHAM-HEPES groups as well as the SAO group	no degradation of mucin13	minimal trypsin activity	–	–	–	–	–	–	–	–	–
FC1(F)C(F)(F)C(F)(F)C2(F)C(F)(F)C(F)(F)C(F)(F)C(F)(F)C2(F)C1(F)F (stereo not shown) [deoxygenated perfluorocarbon, Perfluorodecalin, reference compound]	High levels of trypsin activity	significantly lower	–	significantly decreased	–	significantly lower	highest levels of hypoxia staining	–	minimal trypsin activity	reduced in the SAO group (SAO+PFC) as compared to sham (SHAM+PFC)	presented the lower molecular weight fragments at 17 kDa	–	–	–	–	–	–	–
FC1(F)C(F)(F)C(F)(F)C2(F)C(F)(F)C(F)(F)C(F)(F)C(F)(F)C2(F)C1(F)F (stereo not shown) [oxygenated perfluorocarbon, Perfluorodecalin]	prevents the appearance of trypsin activity inside the intestinal wall	significantly higher as compared to SAO and SAO-PFC	preserve the villus structure	no reduction of ATP concentration	mucin2 density levels similar to the sham; also recorded: reduces mucin2 and mucin13 degradation	significantly higher as compared to SAO and SAO-PFC	–	complete disappearance or very faint levels of the 17 kDa band; also recorded: reduces mucin2 and mucin13 degradation	minimal trypsin activity	–	–	undetectable levels of trypsin activity	minimize intestinal damage	significantly lower as compared to SAO or SAO+PFC	–	–	–	–
mucin	–	–	–	–	–	–	–	–	–	–	–	–	–	–	30%	cleavage is reduced	–	–
trypsin	–	–	–	–	–	–	–	–	–	–	–	–	–	–	–	–	42%	cleaved
